As a reminder, the pIC50 is the IC50 on a negative log10 scale, so that one unit is a factor of ten. What is called solubility is the concentration that dissolves in the medium under given conditions.

Data set [1] concerns the target T1, Human acid ceramidase (hACR) (Homo sapiens, UniProt Q13510).
T1 construct: expressed in transfected cells; lysates of cells overexpressing acid ceramidase
T1 sequence (Q13510 22-395): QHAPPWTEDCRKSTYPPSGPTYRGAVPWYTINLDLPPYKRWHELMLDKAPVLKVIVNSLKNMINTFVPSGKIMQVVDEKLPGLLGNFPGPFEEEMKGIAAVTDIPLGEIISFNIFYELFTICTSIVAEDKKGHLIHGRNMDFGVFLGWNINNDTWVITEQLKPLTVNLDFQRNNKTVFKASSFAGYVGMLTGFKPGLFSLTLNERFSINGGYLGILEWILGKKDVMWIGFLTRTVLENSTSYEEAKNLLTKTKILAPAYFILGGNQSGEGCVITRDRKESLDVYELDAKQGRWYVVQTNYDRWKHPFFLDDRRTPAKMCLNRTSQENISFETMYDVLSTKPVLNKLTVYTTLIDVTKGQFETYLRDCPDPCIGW
The data set can be described thus: Acid ceramidase biochemical fluorescent assay (cell lysates overexpressing acid ceramidase, substrate Rbm14-12). Particulars: 10 μg lysate protein, 1 hr preincubation at RT, pH 4.5, Rbm14-12 6.3 μM. On the procedure: The ability of exemplary compounds to inhibit acid ceramidase was measured.
Cell lysates overexpressing acid ceramidase were used as the enzyme source for compound potency determination in a biochemical fluorescent assay. Briefly, compounds were preincubated with 10 μg protein of cell lysates in a dose-response manner for 1 hr at RT in the assay buffer containing 25 mM NaAC and 100 mM NaCl, pH 4.5. The reaction was initiated by the addition of substrate Rbm14-12 at a final concentration of 6.3 μM. The reaction was run at RT for 1 hr before it was stopped by the addition of the stopping buffer containing 20% methanol (v/v), 1 mg/ml NaIO4, 0.1 M glycine, pH 10.6. The samples were incubated with the stopping buffer at RT for 1 hr to allow the fluorescent product to be formed. Finally the plate was read with SpectraMax i3 plate reader (Molecular Devices) at ex360 nm and em446 nm. Data were collected and used to determine the IC50 values of compounds by curve fitting to the four-parameter inhibition equation.
The symbol “A” indicates inhibition of less than 0.2 μM; the symbol “B” indicates inhibition in the range of 0.2 μM up to 1 μM; and the symbol “C” indicates inhibition of greater than 1 μM.

Data set [2] in a line: Compound solubility in water. The class given is physicochemical. Particulars: read-out: Solubility in H2O.

pIC50: −log10 of the molar value. Converted amounts (≈) assume the structure as drawn. Bounds are passed on as bounds.

For `CC1CN(c2ccc3c(c2)oc(=O)n3C)CC(C)N1C(=O)NCCCCc1ccccc1` (stereo not shown) [Example 59, 2,6-Dimethyl-4-(3-methyl-2-oxo-1,3-benzoxazol-6-yl)-N-(4-phenylbutyl)piperazine-1-carboxamide], the pIC50 in data set [1] is greater than 6.70. Besides, in data set [2], the solubility is 0.5 µM (≈ 0.218 µg/mL). For `CC(C)CNC(=O)N1CCC(c2cccc3c2oc(=O)n3C)CC1` [Example 8, N-iso-Butyl-4-(3-methyl-2-oxo-1,3-benzoxazol-7-yl)piperidine-1-carboxamide], in data set [1], the pIC50 is less than 6.00. In addition, in data set [2], the solubility stood at 143 µM (≈ 47.4 µg/mL). The matching figures for `Cn1c(=O)oc2cc(N3CCN(C(=O)NCCCCc4ccccc4)CC3=O)ccc21` [Example 63, 4-(3-Methyl-2-oxo-1,3-benzoxazol-6-yl)-3-oxo-N-(4-phenylbutyl)piperazine-1-carboxamide]: less than 6.00 and 51.4 µM (≈ 21.7 µg/mL). `CCCCCNC(=O)N1C(c2ccc3c(c2)oc(=O)n3C)COCC1(C)C` (stereo not shown) [Example 43] had a pIC50 in data set [1] greater than 6.70. Also, in data set [2], the solubility was 69.1 µM (≈ 25.9 µg/mL). The matching figures for `Cn1c(=O)oc2ccc(C3CCN(C(=O)NCCCCc4ccccc4)CC3)cc21` [Example 9, 4-(3-Methyl-2-oxo-1,3-benzoxazol-5-yl)-N-(4-phenylbutyl)piperidine-1-carboxamide]: less than 6.00 and 15 µM (≈ 6.11 µg/mL).

Consider `Cn1c(=O)oc2cc(N3CCN(C(=O)NCCCCc4ccccc4)C(C)(C)C3)ccc21` [Example 50, 2,2-Dimethyl-4-(3-methyl-2-oxo-1,3-benzoxazol-6-yl)-N-(4-phenylbutyl)piperazine-1-carboxamide], for which the pIC50 in data set [1] was greater than 6.70. Moreover, the solubility in data set [2] turned out to be 0.3 µM (≈ 0.131 µg/mL). Compound `CN1CCC(n2c(=O)oc3cc(C4CCN(C(=O)NCCCCc5ccccc5)CC4)ccc32)CC1` [Example 6, 4-[3-(1-Methyl-4-piperidyl)-2-oxo-1,3-benzoxazol-6-yl]-N-(4-phenylbutyl)piperidine-1-carboxamide] showed a pIC50 in data set [1] of less than 6.00. In addition, the solubility in data set [2] came to 10 µM (≈ 4.91 µg/mL).

In turn, `Cn1c(=O)oc2cc(N3CCN(C(=O)NCCC4CC4)C(C)(C)C3)ccc21` [Example 53, N-(2-Cyclopropylethyl)-2,2-dimethyl-4-(3-methyl-2-oxo-1,3-benzoxazol-6-yl)piperazine-1-carboxamide] showed a negative logarithm of the IC50 (pIC50) in data set [1] of less than 6.00. Besides, the solubility in data set [2] turned out to be 20.5 µM (≈ 7.64 µg/mL). The matching figures for `Cn1c(=O)oc2cc(C3CCN(C(=O)NCCC4CC4)C(C)(C)C3)ccc21` (stereo not shown) [Example 29, N-(2-Cyclopropylethyl)-2,2-dimethyl-4-(3-methyl-2-oxo-1,3-benzoxazol-6-yl)piperidine-1-carboxamide]: 6.00 to 6.70 and 250 µM (≈ 92.9 µg/mL). The matching figures for `CN(C)CCn1c(=O)oc2cc(N3CCN(C(=O)NCCCCc4ccccc4)CC3)ccc21` [Example 47, 4-[3-[2-(Dimethylamino)ethyl]-2-oxo-1,3-benzoxazol-6-yl]-N-(4-phenylbutyl)piperazine-1-carboxamide]: less than 6.00 and 250 µM (≈ 116 µg/mL). The matching figures for `Cn1c(=O)oc2cc(N3CCN(C(=O)NCCc4ccccc4)C(C)(C)C3)ccc21` [Example 51, 2,2-Dimethyl-4-(3-Methyl-2-oxo-1,3-benzoxazol-6-yl)-N-(2-phenylethyl)piperazine-1-carboxamide]: 6.00 to 6.70 and 0.9 µM (≈ 0.368 µg/mL). Consider `CC(C)CNC(=O)N1CCC(c2ccc3c(c2)oc(=O)n3C)C[C@@H]1C` (stereo partly drawn) [Example 22, N-iso-Butyl (2S)-methyl-4-(3-methyl-2-oxo-1,3-benzoxazol-6-yl)piperidine-1-carboxamide], for which, in data set [1], the pIC50 is 6.00 to 6.70. The solubility in data set [2] worked out at 235 µM (≈ 81.2 µg/mL). As to `Cn1c(=O)oc2c(C3CCN(C(=O)NCCCCc4ccccc4)CC3)cccc21` [Example 7, 4-(3-Methyl-2-oxo-1,3-benzoxazol-7-yl)-N-(4-phenylbutyl)piperidine-1-carboxamide], the pIC50 in data set [1] is less than 6.00. Moreover, the solubility in data set [2] worked out at 13 µM (≈ 5.3 µg/mL). In data set [1], `Cn1c(=O)oc2cc(C3CCN(C(=O)NCCCCc4ccccc4)C(C)(C)C3)ccc21` (stereo not shown) [Example 24, 2,2-Dimethyl-4-(3-methyl-2-oxo-1,3-benzoxazol-6-yl)-N-(4-phenylbutyl)piperidine-1-carboxamide] had a negative logarithm of the IC50 (pIC50) greater than 6.70. In addition, the solubility in data set [2] was 1.3 µM (≈ 0.566 µg/mL). The compound `Cn1c(=O)oc2cc(N3CCN(C(=O)NCCOCc4ccccc4)C(C)(C)C3)ccc21` [Example 57, N-(2-Benzyloxyethyl)-2,2-dimethyl-4-(3-methyl-2-oxo-1,3-benzoxazol-6-yl)piperazine-1-carboxamide] showed a pIC50 in data set [1] of 6.00 to 6.70. The solubility in data set [2] was 3.5 µM (≈ 1.53 µg/mL). Take `C[C@H]1CC(c2ccc3c(c2)oc(=O)n3C)CCN1C(=O)NCCCCc1ccccc1` (mixture of isomers) [Example 20, (2S)-methyl-4-(3-methyl-2-oxo-1,3-benzoxazol-6-yl)-N-(4-phenylbutyl)piperidine-1-carboxamide]: the pIC50 in data set [1] is greater than 6.70. Moreover, the solubility in data set [2] is 10 µM. Consider `Cn1c(=O)oc2cccc(C3CCN(C(=O)NCCCCc4ccccc4)CC3)c21` [Example 10, 4-(3-Methyl-2-oxo-1,3-benzoxazol-4-yl)-N-(4-phenylbutyl)piperidine-1-carboxamide], for which, in data set [1], the pIC50 was less than 6.00. Further, the solubility in data set [2] was determined as 9 µM (≈ 3.67 µg/mL).

`CCCCCNC(=O)N1CCC(c2ccc3c(c2)oc(=O)n3C)CC1(C)C` (stereo not shown) [Example 28, 2,2-Dimethyl-4-(3-methyl-2-oxo-1,3-benzoxazol-6-yl)-N-pentylpiperidine-1-carboxamide] gave a pIC50 in data set [1] greater than 6.70. Further, the solubility in data set [2] worked out at 1.7 µM (≈ 0.635 µg/mL). For the compound `Cn1c(=O)oc2cc(C3CCN(C(=O)NCCCCC4CC4)C(C)(C)C3)ccc21` (stereo not shown) [Example 31, N-(4-Cyclopropylbutyl)-2,2-dimethyl-4-(3-methyl-2-oxo-1,3-benzoxazol-6-yl)piperidine-1-carboxamide], the pIC50 in data set [1] was greater than 6.70. Besides, the solubility in data set [2] worked out at 0.3 µM (≈ 0.12 µg/mL). `Cn1c(=O)oc2cc(C3CCN(C(=O)NCCOCc4ccccc4)C(C)(C)C3)ccc21` (stereo not shown) [Example 27, N-(2-Benzyloxyethyl)-2,2-dimethyl-4-(3-methyl-2-oxo-1,3-benzoxazol-6-yl)piperidine-1-carboxamide] gave a pIC50 in data set [1] greater than 6.70. Moreover, the solubility in data set [2] was 9.4 µM (≈ 4.11 µg/mL). As for `Cn1c(=O)oc2cc(C3CCN(C(=O)NCCCCc4ccccc4)C(=O)C3)ccc21` (stereo not shown) [Example 35, 4-(3-Methyl-2-oxo-1,3-benzoxazol-6-yl)-2-oxo-N-(4-phenylbutyl)piperidine-1-carboxamide], the pIC50 in data set [1] is less than 6.00. Further, in data set [2], the solubility is less than 1 µM. `Cn1c(=O)oc2cc(N3CCN(C(=O)NCCCCC4CC4)C(C)(C)C3)ccc21` [Example 52, N-(4-Cyclopropylbutyl)-2,2-dimethyl-4-(3-methyl-2-oxo-1,3-benzoxazol-6-yl)piperazine-1-carboxamide] showed a pIC50 in data set [1] greater than 6.70. In addition, the solubility in data set [2] was 0.9 µM (≈ 0.36 µg/mL). Turning to `CC1CC(c2ccc3c(c2)oc(=O)n3C)CCN1C(=O)NCCCCc1ccccc1` (mixture of isomers) [Example 16, 2-methyl-4-(3-methyl-2-oxo-1,3-benzoxazol-6-yl)-N-(4-phenylbutyl)piperidine-1-carboxamide], the negative logarithm of the IC50 (pIC50) in data set [1] was greater than 6.70. Further, the solubility in data set [2] is 2.2 µM. The matching figures for `CN(C)CCn1c(=O)oc2cc(N3CCN(C(=O)NCCCCc4ccccc4)C(C)(C)C3)ccc21` [Example 58, 4-[3-[2-(Dimethylamino)ethyl]-2-oxo-1,3-benzoxazol-6-yl]-2,2-dimethyl-N-(4-phenylbutyl)piperazine-1-carboxamide]: greater than 6.70 and 41.8 µM (≈ 20.6 µg/mL). The compound `Cn1c(=O)oc2cc(N3CCC4(CC3)CN(C(=O)NCCCCc3ccccc3)C4)ccc21` [Example 68, 7-(3-methyl-2-oxo-1,3-benzoxazol-6-yl)-N-(4-phenylbutyl)-2,7-diazaspiro[3.5]nonane-2-carboxamide] showed a pIC50 in data set [1] of less than 6.00.

In turn, `Cn1c(=O)oc2cc(C3CCN(C(=O)NCCCCc4ccccc4)CC3)ccc21` [Example 2, 4-(3-Methyl-2-oxo-1,3-benzoxazol-6-yl)-N-(4-phenylbutyl)piperidine-1-carboxamide] gave a pIC50 in data set [1] of less than 6.00. Still for that read-out and setting: as for `Cn1c(=O)oc2cc(N3CC4(CCN(C(=O)NCCCCc5ccccc5)CC4)C3)ccc21` [Example 70, 2-(3-Methyl-2-oxo-1,3-benzoxazol-6-yl)-N-(4-phenylbutyl)-2,7-diazaspiro[3.5]nonane-7-carboxamide], the figure is less than 6.00; as for `Cn1c(=O)oc2cc(C3CCN(C(=O)NCCC4CC4)CC3)ccc21` [Example 4, N-(2-Cyclopropylethyl)-4-(3-methyl-2-oxo-1,3-benzoxazol-6-yl)piperidine-1-carboxamide], less than 6.00.

Values taken from US20220402901A1 (Bial - R&D Investments, S.A., priority 2019, published 2022).
